Laboratory results published in US5026703A, “Peptide oxytocin antagonists” (priority 1990, dated 1991).
Structures can show the parent of a compound that is named as a salt. *1 amine or outer side, *2 acyl side, *3 side chain or, on linkers, in order; H or OH if unused. Where a SMILES comes first, the peptide text is derived from it. [ ]: non-standard residue; d: D form. X14 = CCOC(=O)C(C(=O)OCC)C1C=NN([*:1])[C@H](C(=O)[*:2])C1; X2 = O=C([C@@H]1[C@@H](O)[C@@H](O)C=NN1[*:1])[*:2]; X4 = CN(C)CCNC1C=NN([*:1])[C@H](C(=O)[*:2])C1; X8 = O=C([C@@H]1CC(N2CCCC2)C=NN1[*:1])[*:2]; dPiz(1,6-dehydro) = O=C(O)[C@H]1CCC=NN1; X9 = O=C([C@@H]1C=CC=NN1[*:1])[*:2]; X1 = O=C([C@H]1CCCNN1[*:1])[*:2]; dNMeF = CN[C@H](Cc1ccccc1)C(=O)O

What was measured:
[1] = biological target: T1, uterine OT receptors (Rattus norvegicus, UniProt P70536); test: [3H]OT radioligand binding to uterine OT receptors, crude membrane preparation; conditions: uteri of DES-treated rats; 1 nM [3H]OT; 60 min, 22° C.; inhibits specific binding by 50%; read-out: Receptor Binding Results IC50 (nM) [3H]OT
T1 construct: from tissue; host or cells: uterus of DES-treated rats, crude membranes
T1 sequence (P70536 1-388): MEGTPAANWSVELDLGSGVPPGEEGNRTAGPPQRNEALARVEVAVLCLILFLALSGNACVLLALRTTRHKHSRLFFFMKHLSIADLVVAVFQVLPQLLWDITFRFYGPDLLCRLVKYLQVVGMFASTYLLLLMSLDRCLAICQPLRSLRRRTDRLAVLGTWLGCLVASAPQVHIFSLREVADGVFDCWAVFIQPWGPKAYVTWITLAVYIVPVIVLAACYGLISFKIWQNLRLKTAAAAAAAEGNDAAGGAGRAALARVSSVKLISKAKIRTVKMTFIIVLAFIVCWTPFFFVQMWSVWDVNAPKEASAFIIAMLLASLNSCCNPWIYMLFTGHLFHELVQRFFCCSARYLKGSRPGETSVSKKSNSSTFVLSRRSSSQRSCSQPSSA
Experimental: The high affinity binding of [^3 H]OT ([tyrosyl, 3,5-[^3 H]OT; 30-60 Ci/mmol; New England Nuclear Boston, Mass.) to uterine OT receptors was based on an assay* using a crude membrane preparation of uteri taken from diethylstilbestrol dipropionate (DES)-treated (0.3 mg/kg, ip; 18-24) rats. Competition studies were conducted at equilibrium (60 min; 22° C.) using 1 nM [^3 H]OT in the following assay buffer: 50 mM Tris-HCl, 5 mM MgCl2, and 0.1% BSA, pH 7.4. Nonspecific binding (10% of the total binding) was determined using 1 μM unlabeled OT and the binding reaction was terminated by filtration through glass fiber filters using a cell harvester (model 7019, Skatron, Inc., Sterling, Va.).
*Fuchs, A-R; Fuchs, F; Soloff, MS. 1985 J. Clin. Endocrinol. Metab. 60:37.

[2] = biological target: AVP-V2 sites (Rattus norvegicus, UniProt Q00788); test: [3H]AVP radioligand binding to rat kidney medulla crude membrane preparation (AVP-V2 sites); conditions: rat kidney medulla membranes; 2 nM [3H]AVP; 30 min at 30° C.; read-out: Receptor Binding Results IC50 (nM) [^3 H]-AVP-V2
Experimental: (§1) Nonspecific binding (5-10% of the total binding) was determined using 10 μM unlabeled AVP, and the binding reaction was terminated by filtration as described above for the [^3 H]OT binding assay.
(§2) +Butlen, D; Guillon, G; Rajerison, RM; Jard, S; Sawyer, WH; Manning, M. 1978 Mol Pharmacol 14:1006.

[3] = biological target: AVP-V1 sites (Rattus norvegicus, UniProt P30560); test: [3H]AVP radioligand binding to male rat liver crude membrane preparation (AVP-V1 sites); conditions: male rat liver membranes; 1 nM [3H]AVP; 30 min at 30° C.; read-out: Receptor Binding Results IC50 (nM) [^3 H]-AVP-V1
Experimental: as §1, §2

AVP-V2 sites, sequence (Q00788 whole entry): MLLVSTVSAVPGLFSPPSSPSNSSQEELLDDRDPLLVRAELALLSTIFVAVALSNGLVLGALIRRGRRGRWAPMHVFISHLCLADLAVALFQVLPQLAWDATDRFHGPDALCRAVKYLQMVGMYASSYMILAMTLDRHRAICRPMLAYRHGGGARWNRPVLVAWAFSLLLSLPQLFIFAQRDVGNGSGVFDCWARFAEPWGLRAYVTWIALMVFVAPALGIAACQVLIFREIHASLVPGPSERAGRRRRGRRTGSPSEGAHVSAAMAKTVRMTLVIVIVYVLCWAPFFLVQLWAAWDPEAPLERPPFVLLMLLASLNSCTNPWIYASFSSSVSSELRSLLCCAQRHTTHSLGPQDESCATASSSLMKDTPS
AVP-V1 sites, sequence (P30560 whole entry): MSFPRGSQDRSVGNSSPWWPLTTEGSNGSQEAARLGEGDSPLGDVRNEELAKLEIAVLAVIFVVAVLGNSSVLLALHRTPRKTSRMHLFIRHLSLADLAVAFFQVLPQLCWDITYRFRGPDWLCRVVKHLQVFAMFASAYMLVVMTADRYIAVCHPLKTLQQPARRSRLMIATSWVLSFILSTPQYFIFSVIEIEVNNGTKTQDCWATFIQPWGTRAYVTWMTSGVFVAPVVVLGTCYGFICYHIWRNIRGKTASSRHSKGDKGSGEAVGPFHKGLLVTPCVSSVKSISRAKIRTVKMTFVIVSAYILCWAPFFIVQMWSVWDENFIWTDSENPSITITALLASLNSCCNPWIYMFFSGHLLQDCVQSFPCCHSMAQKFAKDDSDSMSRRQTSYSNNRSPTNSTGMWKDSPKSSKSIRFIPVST

Row | Structure (SMILES) | IC50 [1] [nM] | IC50 [2] [nM] | IC50 [3] [nM]
1 | CC[C@H](C)[C@@H]1NC(=O)[C@@H](Cc2ccccc2)NC(=O)[C@@H]2CCCN2C(=O)[C@@H](Cc2ccccc2)N(C)C(=O)[C@@H]2C=CC=NN2C(=O)[C@H]2CCC=NN2C1=O [Example 8, cyclo-[D-Phenylalanyl-L-isoleucyl-D-2,3,4,5-tetrahydro-3-pyridazinecarbonyl-L-2,3-dihydro-3-pyridazine-carbonyl-N-methyl-D-phenylalanyl-L-prolyl]] (cyclo(I[dPiz(1,6-dehydro)][X9][dNMeF]P[dF])) | 20 | 1350 | 1410
2 | CC[C@H](C)[C@@H]1NC(=O)[C@@H](Cc2ccccc2)NC(=O)[C@@H]2CCCN2C(=O)[C@@H](Cc2ccccc2)N(C)C(=O)[C@@H]2[C@@H](O)[C@@H](O)C=NN2C(=O)[C@H]2CCC=NN2C1=O [Example 13, cyclo-[D-Phenylalanyl-L-isoleucyl-D-2,3,4,5-tetrahydro-3-pyridazinecarbonyl-(3α,4β,5β)-4,5-dihydroxy-L-2,3,4,5-tetrahydro-3-pyridazinecarbonyl-N-methyl-D-phenylalanyl-L-prolyl]] (cyclo(I[dPiz(1,6-dehydro)][X2][dNMeF]P[dF])) | 785 | > 10000 | 10000
3 | CC[C@H](C)[C@@H]1NC(=O)[C@@H](Cc2ccccc2)NC(=O)[C@@H]2CCCN2C(=O)[C@@H](Cc2ccccc2)N(C)C(=O)[C@@H]2CC(NCCN(C)C)C=NN2C(=O)[C@H]2CCC=NN2C1=O (stereo partly drawn) [Example 16, cyclo-[D-Phenylalanyl-L-isoleucyl-D-2,3,4,5-tetrahydro-3-pyridazinecarbonyl-5-((2-dimethylamino)ethylamino)-L-2,3,4,5,-tetrahydro-3-pyridazinecarbonyl-N-methyl-D-phenylalanyl-L-prolyl] (trifluoroacetate) (High Rf isomer)] (cyclo(I[dPiz(1,6-dehydro)][X4][dNMeF]P[dF])) | 220 | 7300 | 930
4 | CCOC(=O)C(C(=O)OCC)C1C=NN2C(=O)[C@H]3CCC=NN3C(=O)[C@H]([C@@H](C)CC)NC(=O)[C@@H](Cc3ccccc3)NC(=O)[C@@H]3CCCN3C(=O)[C@@H](Cc3ccccc3)N(C)C(=O)[C@@H]2C1 (stereo partly drawn) [Example 17, cyclo-[D-Phenylalanyl-L-isoleucyl-D-2,3,4,5-tetrahydro-3-pyridazinecarbonyl-5-(2-ethoxy-1-(ethoxycarbonyl)-2-oxoethyl)-L-2,3,4,5,-tetrahydro-3-pyridazinecarbonyl-N-methyl-D-phenylalanyl-L-prolyl] (trifluoroacetate)] (cyclo(I[dPiz(1,6-dehydro)][X14][dNMeF]P[dF])) | 200 | 2400 | 3000
5 | CC[C@H](C)[C@@H]1NC(=O)[C@@H](Cc2ccccc2)NC(=O)[C@@H]2CCCN2C(=O)[C@@H](Cc2ccccc2)N(C)C(=O)[C@@H]2[C@@H](O)[C@@H](O)C=NN2C(=O)[C@H]2CCCNN2C1=O [Example 14, cyclo-[D-Phenylalanyl-L-isoleucyl-D-hexahydro-3-pyridazinecarbonyl-(3α,4β,5β)-4,5-dihydroxy-L-2,3,4,5-tetrahydro-3-pyridazinecarbonyl-N-methyl-D-phenylalanyl-L-prolyl]trifluoroacetate salt.] (cyclo(I[X1][X2][dNMeF]P[dF])) | 290 | > 10000 | 10000
6 | CC[C@H](C)[C@@H]1NC(=O)[C@@H](Cc2ccccc2)NC(=O)[C@@H]2CCCN2C(=O)[C@@H](Cc2ccccc2)N(C)C(=O)[C@@H]2CC(N3CCCC3)C=NN2C(=O)[C@H]2CCC=NN2C1=O (stereo partly drawn) [Example 15, cyclo-[D-Phenylalanyl-L-isoleucyl-D-2,3,4,5-tetrahydro-3-pyridazinecarbonyl-5-(1-pyrolidinyl)-L-2,3,4,5-tetrahydro-3-pyridazinecarbonyl-N-methyl-D-phenylalanyl-L-prolyl] trifluoroacetate] (cyclo(I[dPiz(1,6-dehydro)][X8][dNMeF]P[dF])) | 600 | 11000 | 8800
